Results on 1 compound are retold here after patent US12077503B2, “Substituted cyclic amides and their use as herbicides” (FMC CORPORATION, priority 2015, dated 2024).

What all share (assay type): in vivo
In assay [1] the test system is Kochia (Kochia scoparia). Nature of the assay: Test A preemergence. Particulars: Bassia scoparia, pre-emergence, 240 h, preemergence, read-out: Plant response rating, Kochia. In a few lines: (§1)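 Greenhouse, ~10 d after spray; visual injury vs untreated controls, 0 = no effect, 100 = complete control. Preemergence: directed soil spray over planted seeds. Postemergence: plants 2–10 cm, 1–2 leaf stage. Loam/sand blend. Compound in non-phytotoxic solvent with surfactant.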

Assay [2] deals with barnyardgrass (Echinochloa crus-galli). Nature of the assay: Test A preemergence. The settings on record: Echinochloa crus-galli, pre-emergence, 240 h, preemergence, read-out: Plant response rating, Barnyardgrass. An outline of the steps: as §1
For assay [3], the system named is giant foxtail (Setaria faberii). Nature of the assay: Test A preemergence. The settings on record: Setaria faberi, pre-emergence, 240 h, preemergence, read-out: Plant response rating, Foxtail, Giant. An outline of the steps:
as §1

In assay [4] the test system is pigweed (Amaranthus retroflexus). Nature of the assay: Test A preemergence. Particulars: Amaranthus retroflexus, pre-emergence, 240 h, preemergence, read-out: Plant response rating, Pigweed.
For assay [5], the system named is ragweed (common ragweed, Ambrosia elatior). Nature of the assay: Test A preemergence. Particulars: Ambrosia artemisiifolia, pre-emergence, 240 h, preemergence, read-out: Plant response rating, Ragweed. An outline of the steps:
as §1

Assay [6] relates to ryegrass, Italian (Italian ryegrass, Lolium multiflorum). Description: Test A preemergence. Particulars: Lolium multiflorum, pre-emergence, 240 h, preemergence, read-out: Plant response rating, Ryegrass, Italian. In a few lines: as §1
Assay [7] concerns Galium (catchweed bedstraw, Galium aparine). Nature of the assay: Test A postemergence. The settings on record: Galium, post-emergence, 240 h, 125 g ai/ha, postemergence; visual injury after approximately 10 d; 0 to 100 scale (0 no effect, 100 complete control); read-out: Plant response rating, Galium. In a few lines: as §1
In assay [8] the test system is Kochia (Kochia scoparia). Nature of the assay: Test A postemergence. Particulars: Bassia scoparia, post-emergence, 240 h, 125 g ai/ha, postemergence; visual injury after approximately 10 d; 0 to 100 scale (0 no effect, 100 complete control); read-out: Plant response rating, Kochia. In a few lines: as §1
In assay [9] the test system is barnyardgrass (Echinochloa crus-galli). Description: Test A postemergence. The settings on record: Echinochloa crus-galli, post-emergence, 240 h, 125 g ai/ha, postemergence; visual injury after approximately 10 d; 0 to 100 scale (0 no effect, 100 complete control); read-out: Plant response rating, Barnyardgrass. An outline of the steps: as §1
Assay [10] deals with corn (Zea mays). Nature of the assay: Test A postemergence. The settings on record: Zea mays, post-emergence, 240 h, 125 g ai/ha, postemergence; visual injury after approximately 10 d; 0 to 100 scale (0 no effect, 100 complete control). In a few lines: as §1
Assay [11] deals with giant foxtail (Setaria faberii). Nature of the assay: Test A postemergence. The settings on record: Setaria faberi, post-emergence, 240 h, 125 g ai/ha, postemergence; visual injury after approximately 10 d; 0 to 100 scale (0 no effect, 100 complete control); read-out: Plant response rating, Foxtail, Giant. In a few lines:
as §1

The test system of assay [12] is pigweed (Amaranthus retroflexus). Description: Test A postemergence. The settings on record: Amaranthus retroflexus, post-emergence, 240 h, 125 g ai/ha, postemergence; visual injury after approximately 10 d; 0 to 100 scale (0 no effect, 100 complete control); read-out: Plant response rating, Pigweed. An outline of the steps:
as §1

Assay [13] concerns ragweed (common ragweed, Ambrosia elatior). Nature of the assay: Test A postemergence. The settings on record: Ambrosia artemisiifolia, post-emergence, 240 h, 125 g ai/ha, postemergence; visual injury after approximately 10 d; 0 to 100 scale (0 no effect, 100 complete control); read-out: Plant response rating, Ragweed. In a few lines:
as §1

Assay [14] has as its system ryegrass, Italian (Italian ryegrass, Lolium multiflorum). Description: Test A postemergence. Particulars: Lolium multiflorum, post-emergence, 240 h, 125 g ai/ha, postemergence; visual injury after approximately 10 d; 0 to 100 scale (0 no effect, 100 complete control); read-out: Plant response rating, Ryegrass, Italian. An outline of the steps: as §1
The test system of assay [15] is wheat (Triticum aestivum). Description: Test A postemergence. Particulars: Triticum aestivum, post-emergence, 240 h, 125 g ai/ha, postemergence; visual injury after approximately 10 d; 0 to 100 scale (0 no effect, 100 complete control); read-out: Plant response rating, Wheat. In a few lines:
as §1

[16] abbreviates: 125 g ai/ha, visual rating after approx. 10 d, 0 to 100 scale where 0 is no effect and 100 is complete control.
Setting [17] is: 500 g ai/ha, 0 to 100 scale, 0 = no effect, 100 = complete control.

Regarding `Cc1cc([C@H]2CNC(=O)[C@@H]2C(=O)Nc2ccc(F)cc2F)ccc1F` [Compound 718], the pest or weed control at 125 g/ha in [1] (setting [16]) worked out at 0%; in assay [2] (setting [16]), 90%; in assay [3] (setting [16]) it was 70%; in assay [4] (setting [16]), 0%; in [5] (setting [16]), 0%; in assay [6] (setting [16]), 30%. Besides, the pest or weed control at 125 g/ha in assay [7] turned out to be 40%; in assay [8], 30%; in assay [9], 70%; in assay [11] it was 30%; in assay [12], 0%; in assay [13] it was 0%. Also, in assay [14], the pest or weed control at 125 g/ha worked out at 0%. Moreover, the pest or weed control at 500 g/ha in assay [1] (setting [17]) stood at 60%; in [2] (setting [17]), 90%; in [3] (setting [17]) it was 90%; in [4] (setting [17]) it was 0%; in [5] (setting [17]), 40%; in [6] (setting [17]), 30%. Also, in assay [10], the Corn plant response rating (crop injury, 0 = no effect, 100 = complete kill) at 125 g/ha was determined as 0%. The plant injury at 125 g/ha in assay [15] stood at 0%.
